Where a name gives a salt, the structure may show the parent alone.

In experiment [1] the target is T1, human Adenosine A2a receptor (Homo sapiens, UniProt P29274).
T1 construct: expressed in transfected cells; host or cells: CHO cell membranes
Kind of experiment: Adenosine receptor TR-FRET binding assay (CA200645 displacement), A2a. The conditions noted are these: 100 nM CA200645, CHO cell membranes, 2 hours at room temperature. In general terms: In TR-FRET formats the signal depends on donor and acceptor labels being close together.

For experiment [2], the target named is T2, human Adenosine A2b receptor (Homo sapiens, UniProt P29275).
T2 construct: expressed in transfected cells; host or cells: CHO cell membranes
T2 sequence (P29275 1-332): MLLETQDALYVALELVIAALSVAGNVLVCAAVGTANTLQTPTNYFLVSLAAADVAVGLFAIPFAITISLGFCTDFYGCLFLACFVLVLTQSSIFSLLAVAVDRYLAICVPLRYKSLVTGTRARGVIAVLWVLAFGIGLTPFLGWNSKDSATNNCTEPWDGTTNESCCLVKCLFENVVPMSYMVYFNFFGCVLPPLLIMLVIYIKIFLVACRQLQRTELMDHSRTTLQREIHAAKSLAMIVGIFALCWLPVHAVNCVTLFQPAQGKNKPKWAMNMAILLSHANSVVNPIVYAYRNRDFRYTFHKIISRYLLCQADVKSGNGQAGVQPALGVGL
Nature of the experiment: Adenosine receptor TR-FRET binding assay (CA200645 displacement), A2b. The conditions noted are these: 30 nM CA200645, CHO cell membranes, 2 hours at room temperature.

In experiment [3] the target is T3, human Adenosine A1 receptor (Homo sapiens, UniProt P30542).
T3 sequence (P30542 1-326): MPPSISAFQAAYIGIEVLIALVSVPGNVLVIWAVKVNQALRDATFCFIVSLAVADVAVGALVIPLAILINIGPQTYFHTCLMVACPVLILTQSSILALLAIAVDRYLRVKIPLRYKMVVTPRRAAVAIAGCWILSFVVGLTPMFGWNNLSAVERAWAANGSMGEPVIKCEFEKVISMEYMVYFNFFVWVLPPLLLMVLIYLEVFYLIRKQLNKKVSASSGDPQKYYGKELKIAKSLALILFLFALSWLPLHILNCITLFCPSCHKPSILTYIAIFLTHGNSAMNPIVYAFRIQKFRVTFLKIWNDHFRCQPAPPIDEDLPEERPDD
Nature of the experiment: Adenosine receptor TR-FRET binding assay (CA200645 displacement), A1.

Experiment [4] addresses T4, human Adenosine A3 receptor (Homo sapiens, UniProt P0DMS8).
T4 sequence (P0DMS8 1-318): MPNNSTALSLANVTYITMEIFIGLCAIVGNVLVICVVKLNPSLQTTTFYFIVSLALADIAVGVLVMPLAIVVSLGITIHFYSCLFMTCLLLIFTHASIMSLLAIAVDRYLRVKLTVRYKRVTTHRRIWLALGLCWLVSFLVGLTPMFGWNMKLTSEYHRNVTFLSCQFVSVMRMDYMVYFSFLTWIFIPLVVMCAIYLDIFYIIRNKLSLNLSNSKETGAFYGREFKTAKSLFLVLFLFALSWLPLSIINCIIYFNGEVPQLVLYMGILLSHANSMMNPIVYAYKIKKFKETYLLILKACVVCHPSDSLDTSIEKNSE
Nature of the experiment: Adenosine receptor TR-FRET binding assay (CA200645 displacement), A3.

T1 sequence (P29274 whole entry): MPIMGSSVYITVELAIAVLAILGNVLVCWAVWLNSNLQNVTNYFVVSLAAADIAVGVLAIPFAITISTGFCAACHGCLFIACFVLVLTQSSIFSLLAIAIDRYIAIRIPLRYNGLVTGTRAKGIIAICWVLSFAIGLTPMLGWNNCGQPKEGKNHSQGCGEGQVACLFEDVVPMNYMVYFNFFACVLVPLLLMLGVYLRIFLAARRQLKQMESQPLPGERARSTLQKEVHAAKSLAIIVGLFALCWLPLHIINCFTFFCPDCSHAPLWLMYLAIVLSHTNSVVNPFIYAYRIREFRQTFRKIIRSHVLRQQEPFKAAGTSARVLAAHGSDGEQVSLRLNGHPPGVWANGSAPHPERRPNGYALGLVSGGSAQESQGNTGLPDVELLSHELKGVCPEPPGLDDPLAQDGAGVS

One may read the Ki as the dissociation constant of the complex between target and ligand, obtained from inhibition or displacement. A high value points to lower affinity. On to `Cc1cccnc1CNc1ccn2nc(-c3ccco3)c(C(N)=O)c2n1` [Example 38, 2-(2-Furyl)-5-[(3-methyl-2-pyridyl)methylamino]pyrazolo[1,5-a]pyrimidine-3-carboxamide], for which the Ki was determined as 10.5 nM in experiment [1], 971 nM in experiment [2], 158 nM in experiment [3] and 1010 nM in experiment [4].
Regarding `CC(C)(C)OC(=O)N1CC=C(c2ccn3nc(-c4ccco4)c(C#N)c3n2)CC1` [Example 40, tert-butyl 4-[3-cyano-2-(2-furyl)pyrazolo[1,5-a]pyrimidin-5-yl]-3,6-dihydro-2H-pyridine-1-carboxylate], the Ki amounted to 93.6 nM in experiment [1], 5500 nM in experiment [2], 1950 nM in experiment [3] and 1770 nM in experiment [4].
The corresponding values for `N#Cc1c(-c2ccco2)nn2ccc(N3CCNCC3)nc12` [Example 41, 2-(2-Furyl)-5-piperazin-1-yl-pyrazolo[1,5-a]pyrimidine-3-carbonitrile] are 237 nM, 2230 nM, 1570 nM and 5140 nM.
The corresponding values for `N#Cc1c(-c2ccco2)nn2ccc(NC[C@@H]3CNCCO3)nc12` [Example 42, 2-(2-Furyl)-5-[[(2S)-morpholin-2-yl]methylamino]pyrazolo[1,5-a]pyrimidine-3-carbonitrile hydrochloride] are 345 nM, 3060 nM, 313 nM and greater than 1000 nM.
With `N#Cc1c(-c2ccco2)nn2ccc(NC[C@H]3CNCCO3)nc12` [Example 42.1, 2-(2-Furyl)-5-[[(2R)-morpholin-2-yl]methylamino]pyrazolo[1,5-a]pyrimidine-3-carbonitrile hydrochloride], the Ki was 410 nM in experiment [1], 4450 nM in experiment [2], 680 nM in experiment [3] and greater than 1000 nM in experiment [4].
Take `N#Cc1c(-c2ccco2)nn2ccc(N3CCN(Cc4ccccc4)CC3)nc12` [Example 43, 5-(4-Benzylpiperazin-1-yl)-2-(2-furyl)pyrazolo[1,5-a]pyrimidine-3-carbonitrile]: the inhibition constant Ki was 16.4 nM in experiment [1], 1860 nM in experiment [2], 278 nM in experiment [3] and greater than 1000 nM in experiment [4].
Take `N#Cc1c(-c2ccco2)nn2ccc(N)nc12` [Example 49, 5-Amino-2-(2-furyl)pyrazolo[1,5-a]pyrimidine-3-carbonitrile]: the Ki in experiment [1] came out at 147 nM; in experiment [2] it was 2220 nM; in experiment [3], 172 nM; in experiment [4], 3960 nM.
The corresponding values for `Cn1nccc1-c1c(-c2ccco2)nn2ccc(NCc3ccccc3)nc12` [Example 53.1, N-benzyl-2-(2-furyl)-3-(2-methylpyrazol-3-yl)pyrazolo[1,5-a]pyrimidin-5-amine] are 48.6 nM, 129 nM, 34 nM and 174 nM.
Take `N#Cc1c(-c2ccco2)nn2ccc(NCCCO)nc12` [Example 55.1, 2-(2-Furyl)-5-(3-hydroxypropylamino)pyrazolo[1,5-a]pyrimidine-3-carbonitrile]: the inhibitory constant (Ki) in experiment [1] was determined as 103 nM; in experiment [2] it was 1740 nM; in experiment [3], 355 nM; in experiment [4], 8460 nM.
In the case of `N#Cc1c(-c2ccco2)nn2ccc(NCCO)nc12` [Example 55.2, 2-(2-furyl)-5-(2-hydroxyethylamino)pyrazolo[1,5-a]pyrimidine-3-carbonitrile], the Ki in experiment [1] was 244 nM; in experiment [2] it was 1700 nM; in experiment [3] it was 284 nM; in experiment [4], 4180 nM.
The corresponding values for `N#Cc1c(-c2ccco2)nn2ccc(NC[C@H]3CCCNC3)nc12` [Example 56, 2-(2-Furyl)-5-(3-piperidylmethylamino)pyrazolo[1,5-a]pyrimidine-3-carbonitrile hydrochloride] are 141 nM, 2700 nM, 521 nM and greater than 1000 nM.

(Values after patent publication US20230203041A1, “ANTAGONISTS OF THE ADENOSINE A2A RECEPTOR” (AdoRx Therapeutics Limited, priority 2020, published 2023).)
